Results taken from US20090012103A1, “SUBSTITUTED HETEROCYCLIC COMPOUNDS” (priority 2007, published 2009).

Key:
[1] = target: T1, wild-type human cardiac sodium channel, hNav1.5 (Homo sapiens, UniProt Q14524); assay: Late INa screening assay (late sodium current, PatchXpress whole cell patch clamp); type: cell-based; conditions: compound at 10 μM; read-out: Late INa % blk
[2] = target: T1, wild-type human cardiac sodium channel, hNav1.5; assay: Peak INa screening assay (tonic block TB and use-dependent block UDB of peak sodium current); type: cell-based; conditions: compound at 10 μM
Experimental: The late sodium current (Late INa) and peak sodium current (Peak INa) assays are performed on an automated electrophysiology platform, PatchXpress 7000A (MDS Analytical Technologies, Sunnyvale, Calif.), which uses the whole cell patch clamp technique to measure currents through the cell membrane of up to 16 cells at a time. The assay uses an HEK293 (human embryonic kidney) cell line heterologously expressing the wild-type human cardiac sodium channel, hNav1.5, purchased from Millipore (Billerica, Mass.). No beta subunits were coexpressed with the Na channel alpha subunit. […] Experiments are carried out at 24-27° C.
For both the Late INa and Peak INa assays, series resistance compensation is set to 50% and whole-cell compensation is performed automatically. […] Currents through open sodium channels are automatically recorded and stored in the DataXpress2 database (MDS Analytical Technologies, Sunnyvale, Calif.). Analysis is performed using DataXpress2 analysis software and data are compiled in Excel.
Compound stocks are routinely made in glass vials to 10 mM in dimethyl sulfoxide (DMSO). In some cases, when compounds are not soluble in DMSO, they are made in 100% ethanol. Stocks are sonicated as necessary. The extracellular solution for screening Late INa is composed of: 140 mM NaCl, 4 mM KCl, 1.8 mM CaCl2, 0.75 mM MgCl2, and 5 mM HEPES with pH adjusted to 7.4 using NaOH. The extracellular solution for screening Peak INa is composed of: 20 mM NaCl, 120 mM N-methyl-D glucamine, 4 mM KCl, 1.8 mM CaCl2, 0.75 mM MgCl2, and 5 mM HEPES with pH adjusted to 7.4 using HCl. The intracellular solution used to perfuse the inside of the cells for both the Late INa and Peak INa assays contains: 120 mM CsF, 20 mM CsCl, 5 mM EGTA, 5 mM HEPES and pH adjusted to 7.4 with CsOH. Compounds are diluted in extracellular solution to 10 μM in glass vials and then transferred to glass well plates before robotic addition to the cells. The 0 Na extracellular solution used at the end of each experiment for the Late INa and Peak INa assays to measure baseline current contains: 140 mM N-methyl-D-glucamine; 4 mM KCl; 1.8 mM CaCl2; 0.75 mM MgCl2; 5 mM HEPES and pH was adjusted to 7.4 with HCl.
Compounds were also evaluated for their effect in several other assays, including their effect on Peak INa. In some cases, the effect on Peak INa was measured using data from the Late INa assay. […] Since the peak INa can be very large, introducing artifacts in the recording, the concentration of Na^+ in the bath is reduced to 20 mM and a nonpermeant cation is added to compensate for the Na^+ that was omitted from the standard extracellular solution (see above). The peak INa assay uses a holding potential of −100 mV and a 20 ms test pulse to 0 mV to activate the channel. As in the Late INa assay, stepping the voltage to 0 mV causes a rapid increase in negative Na current through hNav1.5 that inactivates within a few ms. No late INa activator is added for the peak assay.
For the separate peak INa assay, both tonic (TB) block and use-dependent (UDB) block of peak inward sodium current by 10 μM compound are determined. TB is block of the channel in the resting state, before the channel opens. TB is simulated in this assay by stimulating the channel to open at a low frequency (0.1 Hz). This is done in order to measure the control current amplitude and monitor current rundown, enabling correction for rundown in the calculation of percent block for TB.

hERG potassium channel = hERG potassium channel (Homo sapiens, UniProt Q12809); assay: hERG screening assay (PatchXpress patch clamp, CHO cell line)
[3] = tonic block, read-out: Tonic Peak INa % blk
[4] = use-dependent block, read-out: UDB Peak INa % blk

T1 sequence (Q14524 whole entry): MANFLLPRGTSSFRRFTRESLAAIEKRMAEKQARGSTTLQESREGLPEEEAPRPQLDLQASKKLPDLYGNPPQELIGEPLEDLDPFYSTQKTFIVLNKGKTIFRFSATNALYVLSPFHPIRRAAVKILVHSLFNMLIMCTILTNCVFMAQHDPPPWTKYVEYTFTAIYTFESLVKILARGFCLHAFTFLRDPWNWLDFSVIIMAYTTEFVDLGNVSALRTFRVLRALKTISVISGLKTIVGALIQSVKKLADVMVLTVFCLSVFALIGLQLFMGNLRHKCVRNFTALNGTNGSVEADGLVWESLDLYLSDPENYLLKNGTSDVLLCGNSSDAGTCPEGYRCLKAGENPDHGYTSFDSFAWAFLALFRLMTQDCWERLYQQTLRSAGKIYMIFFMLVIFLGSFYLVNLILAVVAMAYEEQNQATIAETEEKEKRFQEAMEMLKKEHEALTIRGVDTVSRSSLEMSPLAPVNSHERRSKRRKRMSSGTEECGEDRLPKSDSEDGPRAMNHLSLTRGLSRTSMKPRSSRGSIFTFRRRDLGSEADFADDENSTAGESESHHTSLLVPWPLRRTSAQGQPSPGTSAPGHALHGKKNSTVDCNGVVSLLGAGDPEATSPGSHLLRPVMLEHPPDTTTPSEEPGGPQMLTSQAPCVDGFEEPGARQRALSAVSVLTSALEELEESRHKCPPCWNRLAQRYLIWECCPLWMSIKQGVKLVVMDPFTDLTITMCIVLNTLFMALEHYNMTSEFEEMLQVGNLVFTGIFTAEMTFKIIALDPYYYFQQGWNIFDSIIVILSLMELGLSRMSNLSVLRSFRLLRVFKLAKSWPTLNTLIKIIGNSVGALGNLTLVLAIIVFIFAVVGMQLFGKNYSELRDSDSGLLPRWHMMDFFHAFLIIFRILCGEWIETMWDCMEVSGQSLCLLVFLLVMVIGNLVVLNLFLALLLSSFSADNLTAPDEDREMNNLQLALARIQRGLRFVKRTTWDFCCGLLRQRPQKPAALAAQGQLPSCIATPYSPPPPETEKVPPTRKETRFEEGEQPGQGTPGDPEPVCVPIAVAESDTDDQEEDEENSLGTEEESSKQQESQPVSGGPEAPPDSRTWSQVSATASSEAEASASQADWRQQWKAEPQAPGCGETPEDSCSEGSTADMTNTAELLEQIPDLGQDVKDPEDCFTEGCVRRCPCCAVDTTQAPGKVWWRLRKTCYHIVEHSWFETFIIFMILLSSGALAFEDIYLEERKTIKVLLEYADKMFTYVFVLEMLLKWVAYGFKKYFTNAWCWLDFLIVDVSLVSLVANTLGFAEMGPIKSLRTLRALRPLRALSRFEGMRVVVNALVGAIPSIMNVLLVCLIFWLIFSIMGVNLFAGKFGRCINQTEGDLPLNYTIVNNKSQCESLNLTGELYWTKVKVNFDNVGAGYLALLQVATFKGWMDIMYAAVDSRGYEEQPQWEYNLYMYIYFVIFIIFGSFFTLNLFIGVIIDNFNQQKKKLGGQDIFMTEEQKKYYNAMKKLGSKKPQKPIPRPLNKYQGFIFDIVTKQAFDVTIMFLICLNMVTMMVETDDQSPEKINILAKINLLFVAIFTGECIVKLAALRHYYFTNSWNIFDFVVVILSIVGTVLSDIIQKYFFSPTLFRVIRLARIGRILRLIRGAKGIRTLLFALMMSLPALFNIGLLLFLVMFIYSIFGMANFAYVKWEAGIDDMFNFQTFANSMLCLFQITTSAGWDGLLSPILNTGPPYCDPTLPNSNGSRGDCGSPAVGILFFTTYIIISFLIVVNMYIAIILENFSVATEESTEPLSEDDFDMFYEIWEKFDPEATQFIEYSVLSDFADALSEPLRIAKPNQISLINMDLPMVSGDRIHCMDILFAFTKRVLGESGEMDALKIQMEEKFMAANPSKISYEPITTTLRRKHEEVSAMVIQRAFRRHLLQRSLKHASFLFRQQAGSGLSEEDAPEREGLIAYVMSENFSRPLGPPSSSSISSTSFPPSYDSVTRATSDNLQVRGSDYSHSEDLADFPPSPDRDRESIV
hERG potassium channel, sequence (Q12809 whole entry): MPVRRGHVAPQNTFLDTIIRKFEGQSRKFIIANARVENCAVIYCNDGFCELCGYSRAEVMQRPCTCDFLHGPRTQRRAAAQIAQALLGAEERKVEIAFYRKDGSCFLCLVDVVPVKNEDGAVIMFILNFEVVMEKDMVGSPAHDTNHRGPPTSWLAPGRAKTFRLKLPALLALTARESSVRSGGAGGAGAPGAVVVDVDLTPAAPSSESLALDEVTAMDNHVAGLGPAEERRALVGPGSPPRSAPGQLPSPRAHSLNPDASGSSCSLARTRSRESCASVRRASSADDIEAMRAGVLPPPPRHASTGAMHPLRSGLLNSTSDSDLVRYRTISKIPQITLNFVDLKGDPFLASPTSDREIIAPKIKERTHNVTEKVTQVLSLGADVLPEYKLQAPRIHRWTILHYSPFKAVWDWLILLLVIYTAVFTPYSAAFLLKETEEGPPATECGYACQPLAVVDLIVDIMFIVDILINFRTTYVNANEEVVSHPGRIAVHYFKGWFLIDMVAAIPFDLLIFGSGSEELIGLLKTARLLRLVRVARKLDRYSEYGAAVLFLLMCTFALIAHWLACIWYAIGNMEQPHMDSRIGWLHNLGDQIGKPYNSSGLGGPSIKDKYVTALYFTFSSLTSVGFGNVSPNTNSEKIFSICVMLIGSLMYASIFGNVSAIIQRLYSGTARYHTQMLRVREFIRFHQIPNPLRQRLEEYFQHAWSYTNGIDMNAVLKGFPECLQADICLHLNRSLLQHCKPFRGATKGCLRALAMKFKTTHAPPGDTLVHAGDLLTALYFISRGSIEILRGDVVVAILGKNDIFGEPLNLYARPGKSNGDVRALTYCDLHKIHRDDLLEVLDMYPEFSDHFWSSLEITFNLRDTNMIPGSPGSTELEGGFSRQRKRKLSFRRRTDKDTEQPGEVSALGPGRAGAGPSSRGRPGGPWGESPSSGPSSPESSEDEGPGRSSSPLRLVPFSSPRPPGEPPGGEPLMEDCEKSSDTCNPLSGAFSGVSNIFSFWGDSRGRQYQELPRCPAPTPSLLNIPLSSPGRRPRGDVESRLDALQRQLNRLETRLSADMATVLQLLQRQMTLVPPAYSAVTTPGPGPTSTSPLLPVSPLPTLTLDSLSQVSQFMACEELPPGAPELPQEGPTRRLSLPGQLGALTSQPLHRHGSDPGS

Row | SMILES | inhibition at 10 µM [1] [%] | inhibition at 10 µM [2, 3] [%] | inhibition at 10 µM [2, 4] [%] | hERG Patch Clamp hERG % blk (hERG potassium channel; 1 μM) [%] | hERG Patch Clamp hERG % blk (hERG potassium channel; 10 μM) [%]
1 | COc1ccc(-c2sc3ccccc3c2C2C(C(=O)OCc3ccccc3)=C(C)Nc3nnnn32)cc1 (stereo not shown) [PT-379, benzyl 7-(2-(4-methoxyphenyl)benzo[b]thiophen-3-yl)-5-methyl-4,7-dihydrotetrazolo[1,5-a]pyrimidine-6-carboxylate] | 55 | 11.1 | 9.8 | – | –
2 | CC1=C(C(=O)OCc2ccccc2)C(c2cc(C)c(C)s2)n2nnnc2N1 (stereo not shown) [PT-414, benzyl 7-(4,5-dimethylthiophen-2-yl)-5-methyl-4,7-dihydrotetrazolo[1,5-a]pyrimidine-6-carboxylate] | 78 | 21.6 | – | – | –
3 | CC1=C(C(=O)OC(C)C)C(c2c[nH]nc2-c2cccs2)C2=C(CC(C)(C)CC2=O)N1 (stereo not shown) [PT-162, isopropyl 2,7,7-trimethyl-5-oxo-4-(3-(thiophen-2-yl)-1H-pyrazol-4-yl)-1,4,5,6,7,8-hexahydroquinoline-3-carboxylate] | -0.2 | 1.1 | – | – | –
4 | CC1=C(C(=O)OC(C)C)C(c2c(Br)sc3ccccc23)n2nnnc2N1 (stereo not shown) [PT-506, isopropyl 7-(2-bromobenzo[b]thiophen-3-yl)-5-methyl-4,7-dihydrotetrazolo[1,5-a]pyrimidine-6-carboxylate] | 81.4 | 48.8 | 23 | – | –
5 | CCOC(=O)C1=C(C)Nc2nnnn2C1c1cccc(OCc2ccc(C(=O)OCC)cc2)c1 (stereo not shown) [PT-497, ethyl 7-(3-(4-(ethoxycarbonyl)benzyloxy)phenyl)-5-methyl-4,7-dihydrotetrazolo[1,5-a]pyrimidine-6-carboxylate] | 59 | 22.2 | 15.4 | – | –
6 | CCOC(=O)C1=C(C)NC2=C(C(=O)CCC2)C1c1ccc(C)c2ccccc12 (stereo not shown) [PT-135, ethyl 2-methyl-4-(4-methylnaphthalen-1-yl)-5-oxo-1,4,5,6,7,8-hexahydroquinoline-3-carboxylate] | 59.9 | 9.6 | – | – | –
7 | CCOC(=O)C1=C(C)Nc2nnnn2C1c1cccc(Oc2cccc(C(=O)OCC)c2)c1 (stereo not shown) [PT-494, ethyl 7-(3-(3-(ethoxycarbonyl)phenoxy)phenyl)-5-methyl-4,7-dihydrotetrazolo[1,5-a]pyrimidine-6-carboxylate] | 71.8 | 6.7 | 2 | – | –
8 | CC1=C(C(=O)O[C@@H](C)c2ccccc2)C(c2c3ccccc3cc3ccccc23)n2nnnc2N1 (stereo partly drawn) [PT-055, (S)-1-phenylethyl 7-(anthracen-9-yl)-5-methyl-4,7-dihydrotetrazolo[1,5-a]pyrimidine-6-carboxylate] | 56.3 | 7.6 | – | – | –
9 | COc1ccccc1COC(=O)C1=C(C)Nc2nnnn2C1c1c(C)cccc1C (stereo not shown) [PT-262, 2-methoxybenzyl 7-(2,6-dimethylphenyl)-5-methyl-4,7-dihydrotetrazolo[1,5-a]pyrimidine-6-carboxylate] | 70 | 15.1 | 6.9 | – | –
10 | COC(=O)C1=C(C)Nc2nnnn2C1c1c(Br)sc2ccccc12 (stereo not shown) [PT-518, methyl 7-(2-bromobenzo[b]thiophen-3-yl)-5-methyl-4,7-dihydrotetrazolo[1,5-a]pyrimidine-6-carboxylate] | 71.2 | 24 | – | – | –
11 | CC1=C(C(=O)OCC(F)(F)F)C(c2cccc3ccccc23)n2nnnc2N1 (stereo not shown) [PT-014, 2,2,2-trifluoroethyl 5-methyl-7-(naphthalen-1-yl)-4,7-dihydrotetrazolo[1,5-a]pyrimidine-6-carboxylate] | 50.9 | 9 | – | – | –
12 | CCOC(=O)[C@@H]1CCCN(c2cc(OC)ccc2C2C(C(=O)OCc3ccccc3)=C(C)Nc3[nH]ncc32)C1 (stereo partly drawn) [PT-327, benzyl 4-(2-((R)-3-(ethoxycarbonyl)piperidin-1-yl)-4-methoxyphenyl)-6-methyl-4,7-dihydro-1H-pyrazolo[3,4-b]pyridine-5-carboxylate] | 35.3 | 18.5 | 9.4 | – | –
13 | CC1=C(C(=O)OCc2ccccc2)C(c2occc2-c2ccccc2)n2nnnc2N1 (stereo not shown) [PT-351, benzyl 5-methyl-7-(3-phenylfuran-2-yl)-4,7-dihydrotetrazolo[1,5-a]pyrimidine-6-carboxylate] | 81.6 | 49.9 | – | – | –
14 | CC1=C(C(=O)NCCCCc2ccccc2)C(c2ccsc2)C2=C(CCCC2=O)N1 (stereo not shown) [PT-164, 2-methyl-5-oxo-N-(4-phenylbutyl)-4-(thiophen-3-yl)-1,4,5,6,7,8-hexahydroquinoline-3-carboxamide] | 32 | 10.2 | – | – | –
15 | CCOC(=O)C1=C(C)NC(C)=C(C(=O)OCC)C1c1ccccc1-c1ccc(NS(C)(=O)=O)cc1 [PT-428, diethyl 2,6-dimethyl-4-(4′-(methylsulfonamido)biphenyl-2-yl)-1,4-dihydropyridine-3,5-dicarboxylate] | 45.1 | 5.3 | 1 | – | –
16 | CCOC(=O)C1=C(C)Nc2[nH]ncc2C1c1ccccc1Br (stereo not shown) [PT-448, ethyl 4-(2-bromophenyl)-6-methyl-4,7-dihydro-1H-pyrazolo[3,4-b]pyridine-5-carboxylate] | 33.6 | – | – | 10.0 | 57.5
17 | CCOC(=O)C1=C(CC)Nc2nnnn2C1c1cccc2ccccc12 (stereo not shown) [PT-010, ethyl 5-ethyl-7-(naphthalen-1-yl)-4,7-dihydrotetrazolo[1,5-a]pyrimidine-6-carboxylate] | 36.1 | – | – | 12.5 | 30.0
18 | CC1=C(C(=O)OCc2ccccc2)C(c2nccs2)n2nccc2N1 (stereo not shown) [PT-363, benzyl 5-methyl-7-(thiazol-2-yl)-4,7-dihydropyrazolo[1,5-a]pyrimidine-6-carboxylate] | 40.9 | – | – | 10.0 | 19.5
19 | COC(=O)c1ccc(-c2n[nH]c3c2C(c2cccc4ccccc24)C2=C(COC2=O)N3)cc1 (stereo not shown) [PT-085, methyl 4-(4-(naphthalen-1-yl)-5-oxo-4,5,7,8-tetrahydro-1H-furo[3,4-b]pyrazolo[4,3-e]pyridin-3-yl)benzoate] | 9.1 | – | – | 34.0 | 44.5
20 | CC1=C(C(=O)OCc2ccccc2)C(c2sc3ccccc3c2C)n2nnnc2N1 (stereo not shown) [PT-044, benzyl 5-methyl-7-(3-methylbenzo[b]thiophen-2-yl)-4,7-dihydrotetrazolo[1,5-a]pyrimidine-6-carboxylate] | 70.7 | – | – | 16.5 | 40.0
21 | CC1=C(C(=O)OC(C)C)C(c2cccc3ccccc23)n2nnnc2N1 (stereo not shown) [PT-021, isopropyl 5-methyl-7-(naphthalen-1-yl)-4,7-dihydrotetrazolo[1,5-a]pyrimidine-6-carboxylate] | 48.2 | – | – | 13.0 | 43.5
22 | CCCC1=C(C(=O)OCC)C(c2ccsc2)C2=C(CC(c3ccccc3)CC2=O)N1 (stereo not shown) [PT-149, ethyl 5-oxo-7-phenyl-2-propyl-4-(thiophen-3-yl)-1,4,5,6,7,8-hexahydroquinoline-3-carboxylate] | 71.5 | – | – | 24.3 | 67.0
